Experimental data published in patent publication US20240360150A1, “ISOINDOLINONE COMPOUNDS AND USES THEREOF” (HANGZHOU GLUBIO PHARMACEUTICAL CO. LTD., priority 2021, published 2024).
Like-named read-outs stand apart in the source and are kept apart here.

Tests used:
HiBiT-tagged IKZF1 [1] = target: T1, HiBiT-tagged IKZF1 (Homo sapiens, UniProt Q13422+Q96SW2); test: Degradation assay for IKZF1 (HiBiT tag bioluminescence assay); assay type: cell-based
T1 construct: expressed in transfected cells; host or cells: HT-1080 (ATCC CCL-121), lentiviral transduction
Method: (§1) About 10,000 cells in complete DMEM cell culture media were seeded per well. Assay plates were incubated at 37° C. with 5% CO2 for hours, followed by the assessment of IKZF1 or SALL4 degradation using the Nano-Glo HiBiT Lytic Detection Reagent (Cat #N3050, Promega) according to the manufacturer's instruction. Luminescence was then measured with an EnVision plate reader (PerkinElmer) or a PHERAstar plate reader (BMG Labtech). All IKZF1 or SALL4 degradation curves were processed using Collaborative Drug Discovery Vault softwares. IKZF1 or SALL4 levels in compound-treated wells were normalized to that of DMSO control and expressed as Percent of Control (PoC, y). A four Parameter Logistic Model was used to determine the compound's EC50 and DC50, using the following equation:
(§2) A=Ymin (lowest IKZF1 or SALL4 level normalized to DMSO control in response to compound treatment, as determined by curve fit)
(§3) B=Ymax (IKZF1 or SALL4 level in DMSO control)
(§4) C=EC50 half degradation concentration
(§5) EC50=the concentration of compound when y=(Ymax−Ymin)/2
(§6) DC50=test sample concentration when IKZF1 or SALL4 readings y=50% DMSO-treated samples
(§7) y=IKZF1 or SALL4 readings after test sample treatment (normalized to IKZF1 or SALL4 readings in DMSO-treated samples)
(§8) Dmax represents the maximum percentage of IKZF1 or SALL4 protein degradation induced by compound treatment.

[2] = Pharmacokinetic study in mice; assay type: in vivo; settings: male CD1 mice
Method: Objective: The objective of this study was to determine the pharmacokinetics of test compound following a single intravenous (IV) bolus dose and a single oral (PO) administration in male CD1 mice by quantifying the concentrations of the test compound at different times in plasma using LC/MS/MS method.
Materials: Male CD1 mouse (20-30 g, 6-8 weeks, Zhejiang Vital River Laboratory Animal Technology Co., Ltd.).
The clear solution of the test article was injected into CD1 mice via tail vein (free access to food and water), or orally administrated into CD1 mice (free access to food and water). After administration, blood was collected from the dorsal metatarsal vein at 5 min (0.0833 h, IV only), 15 min (0.25 h), 30 min (0.5 h), 60 min (1 h), 2 h, 4 h, 6 h, 8 h and 24 h. Blood samples were placed in an anticoagulant tube with EDTA-K2 at 4° C., mixed adequately and centrifuged at 4000 g for 5 min to get the plasma. The plasma concentration was quantified by LC-MS/MS. The PK parameters were calculated using non-compartmental model by Phoenix WinNonlin 6.1 (Linear/log trapezoidal).

MM.1S cells = test: MM.1S cell proliferation assay (CellTiter-Glo); assay type: cell-based; settings: for IC50: Homo sapiens, MM1.S, antiproliferative, 120 hours incubation, CellTiter-Glo, read-out: MM.1S: IC50; for Ymin: lowest cell viability read normalized to DMSO control, MM.1S, 120 hours
Method: About 3,000 cells in 50 μL of culture medium were seeded per well. Assay plates were incubated at 37° C. with 5% CO2 for 120 hours. After that, 20 μL of the CellTiter-Glo Luminescent Cell Viability Assay Reagent (Cat #G7573, Promega) was added to each well and incubated at room temperature for 30 minutes. Luminescence was then measured with an EnVision plate reader (PerkinElmer) or a PHERAstar plate reader (BMG LABTECH). All percentage of cell growth inhibition curves were processed using Collaborative Drug Discovery Vault softwares. Cell viability reads in compound-treated wells were normalized to that of DMSO control and expressed as Percent of Control (PoC, y). A four Parameter Logistic Model was used to determine the compound's EC50 and DC50, using the following equation:
[formula] • wherein, • A=Ymin (lowest cell viability read normalized to DMSO control in response to compound treatment, as determined by curve fit) • B=Ymax (the maximum value, cell viability read in DMSO control) • C=EC50 half inhibitory concentration • D=Hill Slope • x=compound concentration
as §5
y=cell viability read normalized to DMSO control

HiBiT-tagged SALL4 = target: T2, HiBiT-tagged SALL4 (Homo sapiens, UniProt Q96SW2+Q9UJQ4); test: Degradation assay for SALL4 (HiBiT tag bioluminescence assay); assay type: cell-based
T2 construct: expressed in transfected cells; host or cells: HT-1080 (ATCC CCL-121), lentiviral transduction
Method: as §1, §2, §3, §4, §5, §6, §7, §8

HiBiT-tagged IKZF1 [3] = target: T1, HiBiT-tagged IKZF1; test: IKZF1 protein degradation kinetics (IKZF1 HiBiT degradation assay, incubation 1, 2 or 4 hours); assay type: cell-based
Excerpt: The following is a general method for testing compounds-induced degradation of HiBiT-tagged IKZF1 or SALL4 overexpressed in a human cell line, for example, the HT-1080 cell line (American Type Culture Collection (ATCC), catalog number CCL-121). The HT-1080 IKZF1 (or SALL4) HiBiT reporter cell line was engineered via lentiviral transduction to stably overexpress GSPT1 (Δ1-138)/G575N and HiBiT-tagged IKZF1 or SALL4. The HT-1080 IKZF1 (or SALL4) HiBiT reporter cell line was maintained in DMEM media supplemented with 10% fetal bovine serum, IX sodium pyruvate, 1× non-essential amino acids, IX glutamine, 100 U/ml penicillin, and 100 μg/mL streptomycin. The HT-1080 IKZF1 (or SALL4) HiBiT reporter cells were seeded into 384-well plates (Cat #3764, Corning) pre-spotted with DMSO or test compounds. Increasing concentrations of test compounds (ranging from 15.81 pM to 500 nM or from 0.3162 nM to 10 μM at a 3.162-fold increment) or DMSO were dispensed into an empty 384-well plate using an Echo 650 Acoustic Liquid Handler (Beckman Coulter). About 10,000 cells in complete DMEM cell culture media were seeded per well. Assay plates were incubated at 37° C. with 5% CO2 for hours, followed by the assessment of IKZF1 or SALL4 degradation using the Nano-Glo HiBiT Lytic Detection Reagent (Cat #N3050, Promega) according to the manufacturer's instruction. Luminescence was then measured with an EnVision plate reader (PerkinElmer) or a PHERAstar plate reader (BMG Labtech). All IKZF1 or SALL4 degradation curves were processed using Collaborative Drug Discovery Vault softwares. IKZF1 or SALL4 levels in compound-treated wells were normalized to that of DMSO control and expressed as Percent of Control (PoC, y). A four Parameter Logistic Model was used to determine the compound's EC50 and DC50, using the following equation: […]
The IKZF1 protein degradation kinetics of compounds 9-B and 9-A was evaluated using the IKZF1 HiBiT degradation assay as described above except that the incubation time was changed to 1, 2 or 4 hours.

[4] = HT-1080, Table 1; HT-1080 IKZF1 HiBiT reporter cells; maximum percentage of protein degradation
[5] = Table 1; HT-1080 IKZF1 HiBiT reporter cells; performed once with technical duplicates, some compounds tested on different days; read-out: HiBiT IKZF1: DC50
[6] = mouse, Table 4, PO (10 mg/kg), plasma
[7] = HT-1080, Table 1; HT-1080 SALL4 HiBiT reporter cells; maximum percentage of protein degradation
[8] = Table 1; HT-1080 SALL4 HiBiT reporter cells; performed once with technical duplicates, some compounds tested on different days; read-out: HiBiT SALL4: DC50
[9] = after 1 hour of compound incubation
[10] = mouse, Table 5, PO (10 mg/kg), plasma

T1 sequence (Q13422 whole entry): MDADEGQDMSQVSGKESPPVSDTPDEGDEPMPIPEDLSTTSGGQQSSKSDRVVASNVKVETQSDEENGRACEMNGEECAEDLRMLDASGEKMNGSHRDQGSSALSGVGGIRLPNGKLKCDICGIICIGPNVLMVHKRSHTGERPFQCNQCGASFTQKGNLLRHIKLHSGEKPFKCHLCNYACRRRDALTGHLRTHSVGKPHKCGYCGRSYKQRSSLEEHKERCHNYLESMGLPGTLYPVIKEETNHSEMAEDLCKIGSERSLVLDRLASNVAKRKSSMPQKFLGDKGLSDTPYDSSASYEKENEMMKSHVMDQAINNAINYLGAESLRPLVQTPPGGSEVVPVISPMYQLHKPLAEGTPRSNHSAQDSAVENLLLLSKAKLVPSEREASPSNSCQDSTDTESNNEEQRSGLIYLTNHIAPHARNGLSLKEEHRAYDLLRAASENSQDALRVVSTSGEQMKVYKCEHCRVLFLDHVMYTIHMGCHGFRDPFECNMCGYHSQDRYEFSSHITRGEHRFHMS
T1 sequence (Q96SW2 whole entry): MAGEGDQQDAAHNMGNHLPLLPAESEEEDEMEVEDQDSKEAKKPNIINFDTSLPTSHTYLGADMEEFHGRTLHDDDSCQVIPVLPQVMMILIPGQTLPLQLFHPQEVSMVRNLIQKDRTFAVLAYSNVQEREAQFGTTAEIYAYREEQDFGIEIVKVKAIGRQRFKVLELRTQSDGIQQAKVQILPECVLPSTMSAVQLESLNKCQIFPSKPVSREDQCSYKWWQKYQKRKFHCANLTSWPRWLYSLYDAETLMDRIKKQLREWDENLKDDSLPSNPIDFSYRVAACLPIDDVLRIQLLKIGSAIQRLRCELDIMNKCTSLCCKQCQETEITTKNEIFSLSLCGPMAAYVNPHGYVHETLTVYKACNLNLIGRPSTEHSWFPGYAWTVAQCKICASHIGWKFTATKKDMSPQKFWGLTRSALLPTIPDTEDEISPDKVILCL
T1 sequence (Q16531 whole entry partner): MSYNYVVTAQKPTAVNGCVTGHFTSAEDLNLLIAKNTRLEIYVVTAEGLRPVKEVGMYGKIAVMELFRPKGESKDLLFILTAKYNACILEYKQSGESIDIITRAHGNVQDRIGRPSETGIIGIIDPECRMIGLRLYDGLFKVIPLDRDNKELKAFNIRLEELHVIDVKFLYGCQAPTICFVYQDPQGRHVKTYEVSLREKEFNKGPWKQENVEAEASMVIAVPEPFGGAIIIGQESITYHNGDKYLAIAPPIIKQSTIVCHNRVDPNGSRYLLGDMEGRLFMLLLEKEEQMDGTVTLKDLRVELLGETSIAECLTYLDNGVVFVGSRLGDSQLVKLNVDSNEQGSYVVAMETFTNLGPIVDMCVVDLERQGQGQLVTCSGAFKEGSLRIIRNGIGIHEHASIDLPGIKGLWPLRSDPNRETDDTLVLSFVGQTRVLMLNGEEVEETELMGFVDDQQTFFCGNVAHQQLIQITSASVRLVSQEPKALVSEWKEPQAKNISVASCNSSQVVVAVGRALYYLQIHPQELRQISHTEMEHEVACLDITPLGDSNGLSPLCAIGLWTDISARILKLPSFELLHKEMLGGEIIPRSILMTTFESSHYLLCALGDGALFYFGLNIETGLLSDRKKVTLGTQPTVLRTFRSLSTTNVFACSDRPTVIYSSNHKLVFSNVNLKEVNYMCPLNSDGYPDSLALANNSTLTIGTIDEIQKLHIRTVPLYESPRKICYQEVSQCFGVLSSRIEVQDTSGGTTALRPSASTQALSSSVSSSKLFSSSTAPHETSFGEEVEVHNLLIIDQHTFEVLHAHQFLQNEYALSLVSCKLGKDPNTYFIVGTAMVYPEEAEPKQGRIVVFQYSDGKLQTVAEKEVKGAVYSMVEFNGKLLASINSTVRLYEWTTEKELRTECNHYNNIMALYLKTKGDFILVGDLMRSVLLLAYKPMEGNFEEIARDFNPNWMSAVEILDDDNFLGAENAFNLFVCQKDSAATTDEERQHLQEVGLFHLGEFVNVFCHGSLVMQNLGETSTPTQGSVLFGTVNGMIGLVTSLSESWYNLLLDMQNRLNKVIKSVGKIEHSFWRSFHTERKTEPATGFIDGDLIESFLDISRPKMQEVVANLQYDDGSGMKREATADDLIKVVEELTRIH
T2 sequence (Q9UJQ4 whole entry): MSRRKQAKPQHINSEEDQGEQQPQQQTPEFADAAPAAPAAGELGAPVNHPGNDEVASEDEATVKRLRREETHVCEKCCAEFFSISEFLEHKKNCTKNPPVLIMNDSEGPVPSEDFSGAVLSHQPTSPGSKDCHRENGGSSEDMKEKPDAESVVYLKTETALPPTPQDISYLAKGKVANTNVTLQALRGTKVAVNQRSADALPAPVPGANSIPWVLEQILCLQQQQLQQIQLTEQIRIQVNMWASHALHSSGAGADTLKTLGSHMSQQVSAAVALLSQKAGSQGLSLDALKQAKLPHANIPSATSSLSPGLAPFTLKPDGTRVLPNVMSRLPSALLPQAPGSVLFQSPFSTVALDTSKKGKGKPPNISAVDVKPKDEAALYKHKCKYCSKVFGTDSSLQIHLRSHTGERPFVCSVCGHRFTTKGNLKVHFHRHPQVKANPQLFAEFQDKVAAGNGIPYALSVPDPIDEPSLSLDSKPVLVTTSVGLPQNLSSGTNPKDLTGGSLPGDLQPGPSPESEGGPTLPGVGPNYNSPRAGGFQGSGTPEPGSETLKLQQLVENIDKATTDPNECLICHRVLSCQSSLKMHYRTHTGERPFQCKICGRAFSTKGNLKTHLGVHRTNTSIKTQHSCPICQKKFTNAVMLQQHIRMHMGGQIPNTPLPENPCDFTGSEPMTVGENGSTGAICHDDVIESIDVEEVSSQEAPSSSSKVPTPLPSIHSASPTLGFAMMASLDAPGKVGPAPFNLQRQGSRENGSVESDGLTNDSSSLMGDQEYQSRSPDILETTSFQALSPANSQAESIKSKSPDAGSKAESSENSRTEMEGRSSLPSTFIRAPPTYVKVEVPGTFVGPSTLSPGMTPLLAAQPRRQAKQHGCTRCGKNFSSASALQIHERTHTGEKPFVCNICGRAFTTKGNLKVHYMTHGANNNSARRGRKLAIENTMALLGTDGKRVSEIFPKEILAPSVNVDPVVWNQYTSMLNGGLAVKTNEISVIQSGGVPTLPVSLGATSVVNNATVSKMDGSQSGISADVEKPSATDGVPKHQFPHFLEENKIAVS
T2 sequence (Q96SW2 whole entry): as the sequence (Q96SW2 whole entry) above
T2 sequence (Q16531 whole entry partner): as the sequence (Q16531 whole entry partner) above

Structure (SMILES): N#Cc1ccc(N2CCN(Cc3ccc(Cc4ccc5c6c(cc(F)cc46)C(=O)N5C4CCC(=O)NC4=O)cc3)CC2)c(F)c1 (stereo not drawn) [Compound 9]
- Dmax (HiBiT-tagged IKZF1 [1]; [4]): 91.6%
- DC50 (HiBiT-tagged IKZF1 [1]; [5]): 74 pM
- F ([2]; Table 4, PO (10 mg/kg) vs IV (2 mg/kg)): 27.1%
- AUC(0-t) ([2]; mouse, IV (2 mg/kg), plasma): 17200 ng·h/mL
- clearance ([2]; mouse, IV (2 mg/kg), plasma): 1.57 mL/min/kg
- half-life ([2]; mouse, IV (2 mg/kg), plasma): 10.2 h
- Vd ([2]; mouse, IV (2 mg/kg), plasma, read-out: Vss): 1.32 L/kg
- AUC(0-t) [2, 6]: 23300 ng·h/mL
- Cmax [2, 6]: 1460 ng/mL
- IC50 (MM.1S cells): 40 pM
- Ymin (MM.1S cells): 4.0 (n = 2) %
- Dmax (HiBiT-tagged SALL4; [7]): 58.1%
- DC50 (HiBiT-tagged SALL4; [8]): 32000 pM

Structure (SMILES): N#Cc1ccc(N2CCN(Cc3ccc(COc4cccc5c4CN([C@H]4CCC(=O)NC4=O)C5=O)cc3)CC2)c(F)c1 [CC-92480, reference compound]
- Dmax (HiBiT-tagged IKZF1 [1]; Table 2; HT-1080 IKZF1 HiBiT reporter cells; all compounds tested on the same day): 95.5%
- DC50 (HiBiT-tagged IKZF1 [1]; read-out: HiBiT IKZF1: DC50; Table 2; HT-1080 IKZF1 HiBiT reporter cells; all compounds tested on the same day): 105 pM
- IC50 (MM.1S cells): 41 pM
- Ymin (MM.1S cells): 7.5 (n = 7) %
- Dmax (HiBiT-tagged SALL4; Table 2; HT-1080 SALL4 HiBiT reporter cells; all compounds tested on the same day): 75.8%
- DC50 (HiBiT-tagged SALL4; read-out: HiBiT SALL4: DC50; Table 2; HT-1080 SALL4 HiBiT reporter cells; all compounds tested on the same day): 3400 pM

Structure (SMILES): N#Cc1ccc(N2CCN(Cc3ccc(Cc4ccc5c6c(cc(F)cc46)C(=O)N5[C@H]4CCC(=O)NC4=O)cc3)CC2)c(F)c1 (single isomer, unassigned) [Compound 9-B]
- Dmax (HiBiT-tagged IKZF1 [1]; [4]): 90.9%
- Dmax (HiBiT-tagged IKZF1 [1]; HT-1080, Table 2; HT-1080 IKZF1 HiBiT reporter cells; all compounds tested on the same day): 93.8%
- DC50 (HiBiT-tagged IKZF1 [1]; [5]): 134 pM
- DC50 (HiBiT-tagged IKZF1 [1]; Table 2; HT-1080 IKZF1 HiBiT reporter cells; all compounds tested on the same day; read-out: HiBiT IKZF1: DC50): 102 pM
- DC50 (HiBiT-tagged IKZF1 [3]; [9]): ~400 pM
- Dmax (HiBiT-tagged IKZF1 [3]; [9]): ~77%
- DC50 (HiBiT-tagged IKZF1 [3]; after 4 hours of incubation): < 200 pM
- Dmax (HiBiT-tagged IKZF1 [3]; after 4 hours of incubation): 92%
- AUC(0-t) [2, 10]: 73600 ng·h/mL
- Cmax [2, 10]: 4390 ng/mL
- half-life [2, 10]: 8.3 h
- IC50 (MM.1S cells): 22 pM
- Ymin (MM.1S cells): 5.6 (n = 3) %
- Dmax (HiBiT-tagged SALL4; [7]): 59.5%
- Dmax (HiBiT-tagged SALL4; HT-1080, Table 2; HT-1080 SALL4 HiBiT reporter cells; all compounds tested on the same day): 59.4%
- DC50 (HiBiT-tagged SALL4; [8]): 104000 pM
- DC50 (HiBiT-tagged SALL4; Table 2; HT-1080 SALL4 HiBiT reporter cells; all compounds tested on the same day; read-out: HiBiT SALL4: DC50): 102000 pM
